Test results from patent publication US11147847B2, “Extracts from plants of the Moringaceae family and methods of making” (Rutgers, The State University of New Jersey, priority 2013, dated 2021).

What was measured:
[1] = In vitro gluconeogenesis: glucose production in liver cells; assay type: cell-based, rat; details: Rattus norvegicus; range of 5 concentrations, HII4E liver cells
Experimental: (§1) H4IIE rat hepatoma cells (CRL-1548, American Type Culture Collection, Manassas, Va.) were assayed for glucose production as previously described (21). Cell viability was measured by the 3-(4,5-Dimethyl-2-thiazolyl)-2,5-diphenyltetrazolium bromide (MTT; TCI, Portland, Oreg.) assay (22). RNA extraction, cDNA synthesis and qPCR for gene expression of PEPCK and G6P were performed as described above.

TNF-α = assay: LPS-induced TNF-α gene expression in RAW 264.7 macrophages (qPCR); assay type: cell-based; details: any of the concentrations tested; LPS-induced RAW 264.7
Experimental: (§2) All reagents were supplied from Sigma-Aldrich Co. (St. Louis, Mo.) unless otherwise noted. RAW 264.7 macrophages (ATCC TIB-71) were maintained in Dulbecco's modified Eagle's medium (Caisson, North Logan, Utah) supplemented with 100 U/mL penicillin, 100 μg/mL streptomycin, and 10% fetal bovine serum. Cells were incubated at 37° C. in a 5% CO2 humidified atmosphere and subcultured by cell scraping. For experiments, RAW cells were plated at a density of 4×10^5 cells/mL in 24-well plates. Cells were incubated overnight (18 h), washed with warm 37° C. PBS, and medium was replaced fresh DMEM medium. […] Lipopolysaccharide (1 μg/mL) was added after 2 h incubation with treatments to elicit inflammatory responses. Cells were treated in duplicate or triplicate. After an additional 6 h incubation period, media were collected and cells were washed with PBS prior to collection in TRIzol® Reagent (Ambion, Life Technologies). […]
(§3) Total RNA was extracted from cells according to manufacturer's specifications. […] RNA integrity was evaluated by running about 1 μg of RNA on a 1% agarose gel. […]
(§4) Quantitative PCR amplifications were performed on an ABI 7300 Real-Time PCR System (Applied Biosystems) with the following thermal cycler profile: 2 minutes, 50° C.; 10 minutes, 95° C.; 15 seconds, 95° C.; 1 minute, 60° C. for the dissociation stage; 15 seconds, 95° C.; 1 minutes, 60° C.; and 15 seconds, 95° C. […]

[2] = Accelerated stability of MICs in moringa extract at 37° C. (LCMS); assay type: physicochemical; details: moringa extract stored at 37° C. for 30 days, compared to day 0
RAW 264.7 macrophages = assay: MTT-based cell viability assay; details: concentrations tested in anti-inflammatory assays
Experimental: The effect of the treatments on cell viability was measured using MTT [3-(4,5-dimethyl-2-thiazolyl)-2,5-diphenyltetrazolium bromide] (TCI, Portland, Oreg.) (Mosmann, 1983). MTT (5 mg/mL) was dissolved in PBS (Cayman Chemical, Ann Arbor, Mich.), filtered through a 0.22 μm membrane and added to treated cells during the last 3-4 hours of treatment. Media were carefully aspirated and cells were dissolved in DMSO. The absorbance was read at 570 nm.

HII4E liver cells = assay: In vitro gluconeogenesis: glucose production in liver cells; assay type: cell-based, rat; details: same concentrations as SF
Experimental: as §1

[3] = 1:5 ratio preparations, rotoevaporation 1 hour at 50° C., compared to freeze-dried samples
From the text: Drying the 1:5 ratio preparations can be achieved by rotoevaporation, followed by freeze-drying or spray drying. […] Further concentration of MICs and removal of sugars from the extract can also be performed with solid phase-extraction (SPE).

IL-1β = assay: LPS-induced IL-1β gene expression in RAW 264.7 macrophages (qPCR); assay type: cell-based; details: 1 and 5 μM; LPS-induced RAW 264.7
Experimental: as §2, §3, §4

iNOS = assay: LPS-induced iNOS gene expression in RAW 264.7 macrophages (qPCR); assay type: cell-based; details: 1 and 5 μM; LPS-induced RAW 264.7
Experimental: as §2, §3, §4

IL-6 = assay: LPS-induced IL-6 gene expression in RAW 264.7 macrophages (qPCR); assay type: cell-based; details: 5 μM; LPS-induced RAW 264.7
Experimental: as §2, §3, §4

Compound `CN(C)C(=N)N=C(N)N` [metformin, reference compound] has an IC50 [1] of 800 µM.

With `CC(=O)O[C@@H]1[C@@H](O)[C@@H](O)[C@H](Oc2ccc(CN=C=S)cc2)O[C@H]1C` [MIC-4, 4-[(4′-O-acetyl-α-rhamnosyloxy)benzyl]isothiocyanate] the TNF-α gene expression (TNF-α) was “no reduction”, the “degradation of MIC in moringa extract” value [2] was ~20% and the “cytotoxicity (MTT-based cell viability)” value (RAW 264.7 macrophages) was “no signs of cytotoxicity”. For the same compound, the “glucose production, activity compared to SF” value (HII4E liver cells) was “superior activity to SF”, the “loss of MIC under rotoevaporation conditions” value [3] was “No significant loss” and the “mRNA expression of IL-1β” value (IL-1β) was “significant reduction”. For the same compound, the “mRNA expression of iNOS” value (iNOS) was “significant reduction”.

With `C[C@@H]1O[C@@H](Oc2ccc(CN=C=S)cc2)[C@H](O)[C@H](O)[C@H]1O` [MIC-1, 4-[(α-rhamnosyloxy)benzyl]isothiocyanate] the TNF-α gene expression (TNF-α) was “no reduction”, the IL-6 gene expression (IL-6) was “decrease IL-6 gene expression significantly” and the “degradation of MIC in moringa extract” value [2] was “approximately 80%”. The “cytotoxicity (MTT-based cell viability)” value (RAW 264.7 macrophages) was “no signs of cytotoxicity”, the “glucose production, activity compared to SF” value (HII4E liver cells) was “superior activity to SF” and the “loss of MIC under rotoevaporation conditions” value [3] was “No significant loss”. The “mRNA expression of IL-1β” value (IL-1β) was “significant reduction” and the “mRNA expression of iNOS” value (iNOS) was “significant reduction”.
